Measurements published in US20220380829A1, “Method of Diagonosizing Pathogens and their Antimicrobial Susceptibility” (HANGZHOU DIAN MEDICAL LABORATORY CO., LTD., priority 2019, published 2022).

Assays:
Streptococcus pneumoniae = assay: VITEK2 Compact AST (AST-GP68 cards) with penicillin disc diffusion, gold standard culture-based AST; format: cell-based
Protocol: (§1) Step 1. Drug susceptibility verification: The Streptococcus pneumoniae isolates were tested for drug susceptibility using bioMérieux Vitek2 Compact System and AST-GP68 cards, and specifically, the susceptibility of penicillin was double checked by disc diffusion method (OXOID, CT0043B), and the combined results were used as the gold standard (culture-based AST).
as §1, with “Sample collection and drug” for “Drug”, “48 clinical” for “The”, “pneumoniae isolates were collected from 18 hospitals across china in a period between May 2017 and October 2019. All” for “pneumoniae”, “card,” for “cards,”

Enterococcus faecalis = assay: VITEK2 Compact AST (AST-P639 cards), gold standard culture-based AST; format: cell-based
[1] = Resistance profile classification A
[2] = Resistance profile classification B
[3] = Resistance profile classification C
[4] = Resistance profile classification D
[5] = Resistance profile classification E
[6] = Resistance profile classification F
[7] = Resistance profile classification G
[8] = Resistance profile classification H
[9] = Resistance profile classification I
[10] = Resistance profile classification J
[11] = Resistance profile classification S
[12] = Resistance profile classification F (first line so labelled, r12)
[13] = Resistance profile classification F (second line so labelled, r13)
[14] = Resistance profile classification K
[15] = Resistance profile classification L
[16] = Resistance profile classification M
Note: key: ‘R’ indicates drug-resistant; ‘S’ indicates drug-susceptible.

Molecule	Susceptibility of Emterococcus faecalis to 11 antibacterial drugs (Enterococcus faecalis; [1])	Susceptibility of Emterococcus faecalis to 11 antibacterial drugs (Enterococcus faecalis; [2])	Susceptibility of Emterococcus faecalis to 11 antibacterial drugs (Enterococcus faecalis; [3])	Susceptibility of Emterococcus faecalis to 11 antibacterial drugs (Enterococcus faecalis; [4])	Susceptibility of Emterococcus faecalis to 11 antibacterial drugs (Enterococcus faecalis; [12])	Susceptibility of Emterococcus faecalis to 11 antibacterial drugs (Enterococcus faecalis; [13])	Susceptibility of Emterococcus faecalis to 11 antibacterial drugs (Enterococcus faecalis; [7])	Susceptibility of Emterococcus faecalis to 11 antibacterial drugs (Enterococcus faecalis; [8])	Susceptibility of Emterococcus faecalis to 11 antibacterial drugs (Enterococcus faecalis; [9])	Susceptibility of Emterococcus faecalis to 11 antibacterial drugs (Enterococcus faecalis; [10])	Susceptibility of Emterococcus faecalis to 11 antibacterial drugs (Enterococcus faecalis; [14])	Susceptibility of Emterococcus faecalis to 11 antibacterial drugs (Enterococcus faecalis; [15])	Susceptibility of Emterococcus faecalis to 11 antibacterial drugs (Enterococcus faecalis; [16])	Susceptibility of Emterococcus faecalis to 11 antibacterial drugs (Enterococcus faecalis; [11])	Blind 1 by AST (Streptococcus pneumoniae)	blind 2 by AST (Streptococcus pneumoniae)	also measured
CC1(C)S[C@@H]2[C@H](NC(=O)[C@H](N)c3ccccc3)C(=O)N2[C@H]1C(=O)O [ampicillin]	R	R	R	R	R	R	S	S	S	S	S	S	S	S			Susceptibility of Streptococcus pneumoniae to 14 antibacterial drugs (Streptococcus pneumoniae; [1]): R; Susceptibility of Streptococcus pneumoniae to 14 antibacterial drugs (Streptococcus pneumoniae; [2]): R; Susceptibility of Streptococcus pneumoniae to 14 antibacterial drugs (Streptococcus pneumoniae; [3]): R; Susceptibility of Streptococcus pneumoniae to 14 antibacterial drugs (Streptococcus pneumoniae; [4]): R; Susceptibility of Streptococcus pneumoniae to 14 antibacterial drugs (Streptococcus pneumoniae; [5]): R; Susceptibility of Streptococcus pneumoniae to 14 antibacterial drugs (Streptococcus pneumoniae; [6]): R; Susceptibility of Streptococcus pneumoniae to 14 antibacterial drugs (Streptococcus pneumoniae; [7]): S; Susceptibility of Streptococcus pneumoniae to 14 antibacterial drugs (Streptococcus pneumoniae; [8]): S; Susceptibility of Streptococcus pneumoniae to 14 antibacterial drugs (Streptococcus pneumoniae; [9]): S; Susceptibility of Streptococcus pneumoniae to 14 antibacterial drugs (Streptococcus pneumoniae; [10]): S; Susceptibility of Streptococcus pneumoniae to 14 antibacterial drugs (Streptococcus pneumoniae; [11]): S
CO/N=C(\C(=O)N[C@@H]1C(=O)N2C(C(=O)[O-])=C(C[N+]3(C)CCCC3)CS[C@H]12)c1csc(N)n1 [cefepime]															S	R	
CO/N=C(\C(=O)N[C@@H]1C(=O)N2C(C(=O)O)=C(COC(C)=O)CS[C@H]12)c1csc(N)n1 [cefotaxime]															S	R	
CO/N=C(\C(=O)N[C@@H]1C(=O)N2C(C(=O)O)=C(CSc3nc(=O)c(=O)[nH]n3C)CS[C@H]12)c1csc(N)n1 [ceftriaxone]															S	R	
CCCCCCCCCC(=O)N[C@@H](Cc1c[nH]c2ccccc12)C(=O)N[C@H](CC(N)=O)C(=O)N[C@@H](CC(=O)O)C(=O)N[C@@H]1C(=O)NCC(=O)N[C@@H](CCCN)C(=O)N[C@@H](CC(=O)O)C(=O)N[C@H](C)C(=O)N[C@@H](CC(=O)O)C(=O)NCC(=O)N[C@H](CO)C(=O)N[C@@H]([C@H](C)CC(=O)O)C(=O)N[C@@H](CC(=O)c2ccccc2N)C(=O)O[C@@H]1C [daptomycin]	S	S	S	S	S	S	S	S	S	S	S	S	S	S			
C[C@@H](O)[C@H]1C(=O)N2C(C(=O)O)=C(S[C@@H]3CN[C@H](C(=O)Nc4cccc(C(=O)O)c4)C3)[C@H](C)[C@H]12 [ertapenem]															S	S	
CC[C@H]1OC(=O)[C@H](C)[C@@H](O[C@H]2C[C@@](C)(OC)[C@@H](O)[C@H](C)O2)[C@H](C)[C@@H](O[C@@H]2O[C@H](C)C[C@H](N(C)C)[C@H]2O)[C@](C)(O)C[C@@H](C)C(=O)[C@H](C)[C@@H](O)[C@]1(C)O [erythromycin]	R	R	R	S	R	R	R	R	R	R	S	S	S	S	R	R	
C[C@H]1COc2c(N3CCN(C)CC3)c(F)cc3c(=O)c(C(=O)O)cn1c23 [levofloxacin]	R	R	R	R	S	S	R	S	R	S	R	R	S	8	S	S	
CC(=O)NC[C@H]1CN(c2ccc(N3CCOCC3)c(F)c2)C(=O)O1 [linezolid]	S	S	S	S			S	S	S	S	S	S	S	S	S	S	
C[C@@H](O)[C@H]1C(=O)N2C(C(=O)O)=C(S[C@@H]3CN[C@H](C(=O)N(C)C)C3)[C@H](C)[C@H]12 [meropenem]															S	S	
COc1c(N2C[C@@H]3CCCN[C@@H]3C2)c(F)cc2c(=O)c(C(=O)O)cn(C3CC3)c12 [moxifloxacin]															S	S	
CN(C)[C@@H]1C(O)=C(C(N)=O)C(=O)[C@@]2(O)C(O)=C3C(=O)c4c(O)cccc4[C@@](C)(O)[C@H]3C[C@@H]12 [tetracycline]	R	S	S	S	S	R	R	R	S	R	R	S	R	S	R	R	Susceptibility of Streptococcus pneumoniae to 14 antibacterial drugs (Streptococcus pneumoniae; [1]): R; Susceptibility of Streptococcus pneumoniae to 14 antibacterial drugs (Streptococcus pneumoniae; [2]): R; Susceptibility of Streptococcus pneumoniae to 14 antibacterial drugs (Streptococcus pneumoniae; [3]): S; Susceptibility of Streptococcus pneumoniae to 14 antibacterial drugs (Streptococcus pneumoniae; [4]): S; Susceptibility of Streptococcus pneumoniae to 14 antibacterial drugs (Streptococcus pneumoniae; [5]): S; Susceptibility of Streptococcus pneumoniae to 14 antibacterial drugs (Streptococcus pneumoniae; [6]): S; Susceptibility of Streptococcus pneumoniae to 14 antibacterial drugs (Streptococcus pneumoniae; [7]): S; Susceptibility of Streptococcus pneumoniae to 14 antibacterial drugs (Streptococcus pneumoniae; [8]): S; Susceptibility of Streptococcus pneumoniae to 14 antibacterial drugs (Streptococcus pneumoniae; [9]): S; Susceptibility of Streptococcus pneumoniae to 14 antibacterial drugs (Streptococcus pneumoniae; [10]): R; Susceptibility of Streptococcus pneumoniae to 14 antibacterial drugs (Streptococcus pneumoniae; [11]): S
CN(C)c1cc(NC(=O)CNC(C)(C)C)c(O)c2c1C[C@H]1C[C@H]3[C@H](N(C)C)C(O)=C(C(N)=O)C(=O)[C@@]3(O)C(O)=C1C2=O [tigecycline]	S	S	S	S	S	S	S	S	S	S	S	S		S			
high-level gentamicin [HLAR]	R	R	S	S	S	S	R	R	R	S	S	S	S	S			
